“Also recorded” adds a separate entry of the source. No end group written: not given here.
Tests used:
[1] = system: ACE; conditions: cited from earlier work; for mode of ACE inhibition (literature): compete with the substrate for binding to the active site
Experimental: In this study, we investigated the inhibition mechanism of the hexapeptide on the basis of its sequence to provide a reference for the design of drugs that target such enzymes as ACE. || To determine the inhibitory mechanism, Lineweaver-Burk plots were determined for the ACE-inhibitory peptide from yeast (TPTQQS). […] Thus, the peptide can combine with the ACE molecule to produce a dead-end complex, regardless of whether a substrate molecule is bound or not. The complex between ACE and TPTQQS can prevent the formation of the reaction product, HA. […] However, the amino acid sequence of this peptide is not in accordance with the results of structure-activity correlation studies on ACE-inhibitory peptides. […] In the present study, we demonstr ...

[2] = system: ACE; assay: Assay of ACE-inhibitory activity (HPLC, hippuric acid from HHL); format: biochemical; conditions: peptide 0.25 mmol/L (Fig. 4); HHL substrate, 0.1 mol/L Na-borate buffer pH 8.3; 5 min pre-incubation, 1 h at 37°C; RP-HPLC of HA at 228 nm
Experimental: (§1) The determination of ACE-inhibitory activity was performed using a High Performance Liquid Chromatography (HPLC) method, modified from a spectrophotometric method. HHL (Sigma, USA) was dissolved in 0.1 mol/L Na-borate buffer (pH 8.3) containing 1.55 mmol/L NaCl. ACE (Sigma, USA) was dissolved in the same buffer at a concentration of 0.2 U/mL. A mixture containing 10 µL of inhibitor and 5 µL of ACE solution was incubated at 37°C for 5 min, 50 µL of HHL solution was added, and the solution was incubated for 1 h. The reaction was stopped by adding 100 µL of 0.1% trifluoroacetic acid (TFA) (Sigma, USA). The amount of hippuric acid (HA) yielded by ACE catalysis was measured by RP-HPLC (GX-281, Gilson, France) with an octadecylsilyl (ODS) column (4.6 mm×250 mm, 5 µm, Agilent, USA). The mobile phase was 60% methanol (V/V) containing 0.1% TFA at a flow rate of 0.8 mL/min. The effluent was monitored at 228 nm. The ACE-inhibitory activity was calculated using Equation (1) as follows: [drawing 1] (1) where A is the content of HA generated in the presence of an ACE inhibitor, B is the content of HA generated without an ACE inhibitor, and C is the content of HA generated without ACE.

[3] = system: ACE; assay: Inhibition kinetics of ACE (Lineweaver-Burk plots, HHL substrate); format: biochemical; conditions: 100 and 200 µg/mL inhibitor; HHL 0.78, 1.55, 3.10 mM; Na-borate pH 8.3; 37°C
Experimental: as §1, with “The mobile phase was 60% methanol (V/V) containing 0.1% TFA at a flow rate of 0.8 mL/min.” left out, “(1) where A is the content of HA generated in the presence of an ACE inhibitor, B is the content of HA generated without an ACE inhibitor, and C is the content of HA generated without ACE.” left out
Inhibition kinetics of TPTQQS- Various substrate (HHL) concentrations (0.78 mM, 1.55 mM, and 3.10 mM) were incubated with the ACE solution in the presence or absence of 100 µg/mL, of 200 µg/mL TPTQQS at 37°C. The ACE-inhibitory activity was determined as described as described in the “Assay of ACE-inhibitory activity". The kinetics of ACE in the presence of the inhibitory peptide was determined using Lineweaver-Burk plots.

[4] = target: T1, ACE (Oryctolagus cuniculus, UniProt P12822); assay: ITC titration of HHL into ACE in presence of inhibitor; format: binding; conditions: 0.024 µmol/L ACE and 0.13 µmol/L TPTQQS titrated with 1.55 mmol/L HHL; 37°C; pH 8.3
T1 construct: purchased Sigma, USA
T1 sequence (P12822 34-1310): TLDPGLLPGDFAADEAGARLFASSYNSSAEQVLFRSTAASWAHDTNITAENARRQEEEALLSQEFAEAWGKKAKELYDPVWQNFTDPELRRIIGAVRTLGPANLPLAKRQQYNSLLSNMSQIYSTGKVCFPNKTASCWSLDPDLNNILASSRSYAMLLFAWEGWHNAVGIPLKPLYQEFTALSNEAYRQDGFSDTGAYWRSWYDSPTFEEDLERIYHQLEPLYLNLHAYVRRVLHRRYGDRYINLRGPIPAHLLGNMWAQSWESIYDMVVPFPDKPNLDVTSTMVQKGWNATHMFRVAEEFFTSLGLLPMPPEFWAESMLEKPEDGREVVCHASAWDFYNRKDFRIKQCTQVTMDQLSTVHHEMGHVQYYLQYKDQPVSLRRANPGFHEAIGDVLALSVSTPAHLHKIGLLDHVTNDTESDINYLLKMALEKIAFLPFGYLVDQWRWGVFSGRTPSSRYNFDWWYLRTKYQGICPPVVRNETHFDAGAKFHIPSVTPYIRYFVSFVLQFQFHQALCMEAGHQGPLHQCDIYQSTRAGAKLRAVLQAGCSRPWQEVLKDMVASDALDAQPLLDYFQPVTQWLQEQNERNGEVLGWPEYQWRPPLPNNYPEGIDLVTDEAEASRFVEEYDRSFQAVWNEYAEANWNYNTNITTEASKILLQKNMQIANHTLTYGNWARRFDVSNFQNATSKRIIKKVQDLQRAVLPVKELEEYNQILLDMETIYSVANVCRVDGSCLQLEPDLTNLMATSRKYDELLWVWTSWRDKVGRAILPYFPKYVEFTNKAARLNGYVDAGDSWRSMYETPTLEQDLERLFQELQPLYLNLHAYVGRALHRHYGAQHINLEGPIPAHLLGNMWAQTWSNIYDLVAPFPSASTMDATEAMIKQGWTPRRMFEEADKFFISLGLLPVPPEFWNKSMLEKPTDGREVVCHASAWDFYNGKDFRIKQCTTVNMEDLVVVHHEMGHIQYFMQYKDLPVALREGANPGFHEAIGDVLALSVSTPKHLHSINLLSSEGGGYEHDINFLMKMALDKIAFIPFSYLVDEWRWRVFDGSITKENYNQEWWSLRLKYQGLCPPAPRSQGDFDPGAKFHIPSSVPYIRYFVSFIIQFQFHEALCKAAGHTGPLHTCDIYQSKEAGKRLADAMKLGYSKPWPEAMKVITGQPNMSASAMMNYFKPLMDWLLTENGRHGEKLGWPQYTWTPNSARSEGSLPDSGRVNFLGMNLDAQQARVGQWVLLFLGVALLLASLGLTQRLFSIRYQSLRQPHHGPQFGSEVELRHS
Experimental: The isothermal titration calorimetry (ITC) experiments were carried out using a Nano ITC Low Volume System (TA Instruments-Waters LLC., USA) with a 190 µL cell. All of the experiments were performed at 37°C. ACE was prepared by diluting the stock solution in a buffer of the appropriate pH; the substrate was dissolved in the same buffer as the enzyme. In a control experiment, the ITC cell was filled with 0.024 µmol/L ACE (250 µL), and the ACE solution was titrated with 1.55 mmol/L HHL. The injection volume was […], and the time between two injections was 300 s during which the substrate was completely hydrolyzed. In the inhibition experiment, the ITC cell was filled with 0.024 µmol/L ACE and 0.13 µmol/L TPTQQS (250 µL), and the solution was titrated with 1.55 mmol/L HHL. The titration conditions were the same as those for the control experiment.

Compound: C[C@H](CS)C(=O)N1CCC[C@H]1C(=O)O [captopril]
- mode of ACE inhibition (literature) [1]: Competitive inhibition

Compound: CCOC(=O)[C@H](CCc1ccccc1)N[C@@H](C)C(=O)N1CCC[C@H]1C(=O)O [enalapril]
- mode of ACE inhibition (literature) [1]: Competitive inhibition

Compound: NCCCC[C@H](N[C@@H](CCc1ccccc1)C(=O)O)C(=O)N1CCC[C@H]1C(=O)O [lisinopril]
- mode of ACE inhibition (literature) [1]: Competitive inhibition

Compound: TPTQQS [TPTQQS]
- inhibition rate [2]: 72.55%
- mode of ACE inhibition (Lineweaver-Burk) [3]: non-competitive inhibitor
- affinity of HHL for ACE in the presence of inhibitor, ITC [4]: the same as that in the control experiment
- mode of ACE inhibition by ITC [4]: non-competitive
- ACE-inhibitory activity (literature, in words) ([1]; isolated from hydrolyzed yeast protein): effective ACE-inhibitory peptide; also recorded: highly active
